Assay results as given in article PMC6154598, “Alkamides from Anacyclus pyrethrum L. and Their in Vitro Antiprotozoal Activity” (Molecules : A Journal of Synthetic Chemistry and Natural …, 2017).
Values after ≈ are worked out from the molar mass of the structure shown. Where two headings read alike, the source gives them in different places.

Assays:
P. falciparum (NF54 IEF) [1] = tested on: P. falciparum (NF54 IEF); set-up: method as in PMID 24853616; settings: previously reported data; cited from earlier work
[2] = tested on: T. b. rhodesiense (STIB 900 strain, bloodstream trypomastigotes); experiment: In vitro antiprotozoal activity against T. b. rhodesiense; assay type: cell-based, Trypanosoma brucei rhodesiense; settings: for SI Tbr: ratio of cytotoxic (L6) over antiprotozoal IC50 (Tbr)
Procedure: (§1) Tests for antiprotozoal activities were carried out using established standard protocols at the Swiss Tropical and Public Health Institute (Swiss TPH, Basel, Switzerland). The assays and the IC50 determinations were performed essentially as described previously. The compounds used as positive controls in the various bioassays (see Table 1) were of commercial origin, with the exception of melarsoprol, which was a gift from the WHO. Their purity (generally >95%) was specified by the manufacturers. The purity of test compounds was assessed by UHPLC/MS analyses and found to be >90% in case of compounds 1–6 and >80% in case of 7. Compounds 8 + 9 represented a mixture in a ratio of approximately 1:4 (Figure S10).

[3] = tested on: T. cruzi (Tulahuen C4 strain; intracellular amastigotes); experiment: In vitro antiprotozoal activity against T. cruzi; assay type: cell-based, Trypanosoma cruzi
Procedure: as §1

[4] = tested on: L. donovani (MHOM-ET-67/L82 strain, axenic amastigotes); experiment: In vitro antiprotozoal activity against L. donovani; assay type: cell-based, Leishmania donovani; settings: for SI Ld: ratio of cytotoxic (L6) over antiprotozoal IC50 (Ld)
Procedure: as §1

P. falciparum (NF54 IEF) [5] = experiment: In vitro antiprotozoal activity against P. falciparum; assay type: cell-based, Plasmodium falciparum; settings: for SI Pf: ratio of cytotoxic (L6) over antiprotozoal IC50 (Pf)
Procedure: as §1

[6] = Cytotoxicity against L6 rat skeletal myoblasts; assay type: cell-based
Procedure: as §1

[7] = tested on: L6 rat skeletal myoblast cell line; experiment: Cytotoxicity against L6 rat skeletal myoblasts; assay type: cell-based
Procedure: as §1

[8] = Trypanosoma brucei, STIB 900 strain, bloodstream trypomastigotes, mean of two determinations ± deviation, read-out: IC50 Tbr
[9] = Trypanosoma brucei, STIB 900 strain, bloodstream trypomastigotes, value in μM of pure compound, read-out: IC50 Tbr (in brackets)
[10] = Trypanosoma cruzi, Tulahuen C4 strain, intracellular amastigotes, mean of two determinations ± deviation, read-out: IC50 Tc
[11] = Trypanosoma cruzi, Tulahuen C4 strain, intracellular amastigotes, value in μM of pure compound, read-out: IC50 Tc (in brackets)
[12] = Leishmania donovani, MHOM-ET-67/L82 strain, axenic amastigotes, mean of two determinations ± deviation, read-out: IC50 Ld
[13] = Leishmania donovani, MHOM-ET-67/L82 strain, axenic amastigotes, value in μM of pure compound, read-out: IC50 Ld (in brackets)
[14] = Plasmodium falciparum, NF54, NF54 IEF, mean of two determinations ± deviation, read-out: IC50 Pf
[15] = Plasmodium falciparum, NF54, NF54 IEF, value in μM of pure compound, read-out: IC50 Pf (in brackets)
[16] = rat, IC50 Cytotox (in brackets)
[17] = Plasmodium falciparum, NF54, read-out: IC50 Pf
[18] = Plasmodium falciparum, NF54, read-out: IC50 Pf (in brackets)
[19] = L6 rat skeletal myoblast cell line, mean of two determinations ± deviation, read-out: IC50 Cytotox
[20] = L6 rat skeletal myoblast cell line, value in μM of pure compound, read-out: IC50 Cytotox (in brackets)
[21] = NF54 IEF, mean of two determinations ± deviation

## CCCCC/C=C/C=C/C(=O)NCC(C)C [Compound 2, deca-2E,4E-dienoic acid isobutylamide]
P. falciparum (NF54 IEF) [1]
  IC50 Pf: 3.3 mg/L (≈ 14.8 µM)

## C=CCCC/C=C/C=C/C(=O)NCC(C)C [Compound 3, deca-2E,4E,9-trienoic acid isobutylamide]
[2]; [8]
  IC50: 2.91 ± 0.21 mg/L
[2]; [9]
  IC50: 13.2 µM
[2]
  SI Tbr: 5.7
[3]; [10]
  IC50: 39.9 mg/L
[3]; [11]
  IC50: 181 µM
[4]; [12]
  IC50: 4.77 ± 1.02 mg/L
[4]; [13]
  IC50: 21.6 µM
[4]
  SI Ld: 3.5
P. falciparum (NF54 IEF) [5]; [14]
  IC50: 7.13 ± 0.63 mg/L
P. falciparum (NF54 IEF) [5]; [15]
  IC50: 32.2 µM
P. falciparum (NF54 IEF) [5]
  SI Pf: 2.3
[6]; rat, IC50 Cytotox
  IC50: 16.7 ± 0.1 mg/L
[6]; [16]
  IC50: 75.3 µM

## CCCCC/C=C/C=C/C(=O)NCCc1ccccc1 [Compound 4, deca-2E,4E-dienoic acid 2-phenylethylamide]
[2]; [8]
  IC50: 4.03 mg/L
[2]; [9]
  IC50: 14.9 µM
[2]
  SI Tbr: 2.0
[3]; Trypanosoma cruzi, TULAHUEN, read-out: IC50 Tc
  IC50: 5.02 ± 0.05 mg/L
[3]; [11]
  IC50: 18.5 µM
[4]; Leishmania donovani, read-out: IC50 Ld
  IC50: 2.97 ± 0.54 mg/L
[4]; Leishmania donovani, read-out: IC50 Ld (in brackets)
  IC50: 11 µM
[4]
  SI Ld: 2.7
P. falciparum (NF54 IEF) [5]; [17]
  IC50: > 5 mg/L
P. falciparum (NF54 IEF) [5]; [18]
  IC50: > 18 µM
[6]; [19]
  IC50: 7.88 mg/L
[6]; [20]
  IC50: 29.1 µM

## C/C=C\C#CC#CCC/C=C/C=C/C(=O)NCC(C)C [Compound 6, tetradeca-2E,4E,12Z-trien-8,10-diynoic acid isobutylamide]
[2]; [8]
  IC50: 6.37 ± 0.94 mg/L
[2]; [9]
  IC50: 23.7 µM
[2]
  SI Tbr: 3.1
[3]; [10]
  IC50: 38.8 ± 2.1 mg/L
[3]; [11]
  IC50: 144 µM
[4]; [12]
  IC50: 5.04 ± 1.17 mg/L
[4]; [13]
  IC50: 18.7 µM
[4]
  SI Ld: 3.9
P. falciparum (NF54 IEF) [5]; [14]
  IC50: 7.19 ± 0.49 mg/L
P. falciparum (NF54 IEF) [5]; [15]
  IC50: 26.7 µM
P. falciparum (NF54 IEF) [5]
  SI Pf: 2.7
[6]; rat, IC50 Cytotox
  IC50: 19.4 ± 1.7 mg/L
[6]; [16]
  IC50: 72.2 µM

## CCCCCCC/C=C/C=C/C(=O)NCCc1ccc(O)cc1 [Compound 7, Dodeca-2E,4E-dienoic acid 4-hydroxy-2-phenylethylamide]
[2]; [8]
  IC50: 2.26 ± 0.18 mg/L
[2]; [9]
  IC50: 7.17 µM
[2]
  SI Tbr: 0.1
[3]; Trypanosoma cruzi, TULAHUEN, read-out: IC50 Tc (in brackets)
  IC50: 5.97 µM
[3]; [10]
  IC50: 1.88 mg/L
[4]; [12]
  IC50: 4.19 ± 1.64 mg/L
[4]; [13]
  IC50: 13.3 µM
[4]
  SI Ld: <0.1
P. falciparum (NF54 IEF) [5]; [21]
  IC50 Pf: 3.18 ± 0.20 mg/L (≈ 10.1 µM)
P. falciparum (NF54 IEF) [5]; [14]
  IC50: 3.2 mg/L
P. falciparum (NF54 IEF) [5]; [15]
  IC50: 10.1 µM
P. falciparum (NF54 IEF) [5]
  SI Pf: <0.1
[6]; rat, IC50 Cytotox
  IC50: 0.2 mg/L
[6]; [16]
  IC50: 0.69 µM
[7]; rat
  IC50 Cytotox: 0.19 ± 0.05 mg/L (≈ 0.602 µM)

## CCN(CC)CCCC(C)Nc1ccnc2cc(Cl)ccc12 (stereo not drawn) [chloroquine, reference compound]
P. falciparum (NF54 IEF) [5]; [17]
  IC50: 0.08 ± 0.003 mg/L
P. falciparum (NF54 IEF) [5]; [18]
  IC50: 0.25 µM

## Nc1nc(N)nc(Nc2ccc([As]3SCC(CO)S3)cc2)n1 (stereo not drawn) [melarsoprol, reference compound]
[2]; Trypanosoma brucei, read-out: IC50 Tbr
  IC50: 0.003 ± 0.001 mg/L
[2]; Trypanosoma brucei, read-out: IC50 Tbr (in brackets)
  IC50: 0.008 µM

## CCCCCCCCCCCCCCCCOP(=O)([O-])OCC[N+](C)(C)C [miltefosine, reference compound]
[4]; [12]
  IC50: 0.127 ± 0.052 mg/L
[4]; [13]
  IC50: 0.312 µM

## COc1cc([C@@H]2c3cc4c(cc3[C@H](O)[C@H]3COC(=O)[C@H]23)OCO4)cc(OC)c1OC [podophyllotoxin, reference compound]
[6]; [19]
  IC50: 0.008 ± 0.001 mg/L
[6]; [20]
  IC50: 0.019 µM

## undeca-2E,4E-dien-8,10-diynoic acid isopentylamide [Compound 5]
[2]; STIB 900 strain, bloodstream trypomastigotes, mean of two determinations ± deviation
  IC50 Tbr: 4.59 ± 0.39 mg/L
[2]; STIB 900 strain, bloodstream trypomastigotes, value in μM of pure compound, read-out: IC50 Tbr (in brackets)
  IC50: 18.9 µM
[2]
  SI Tbr: 6.2
[3]; Tulahuen C4 strain, intracellular amastigotes, mean of two determinations ± deviation
  IC50 Tc: 16.3 ± 0.3 mg/L
[3]; Tulahuen C4 strain, intracellular amastigotes, value in μM of pure compound, read-out: IC50 Tc (in brackets)
  IC50: 66.9 µM
[4]; MHOM-ET-67/L82 strain, axenic amastigotes, mean of two determinations ± deviation
  IC50 Ld: 4.04 ± 0.71 mg/L
[4]; MHOM-ET-67/L82 strain, axenic amastigotes, value in μM of pure compound, read-out: IC50 Ld (in brackets)
  IC50: 16.6 µM
[4]
  SI Ld: 7.0
P. falciparum (NF54 IEF) [5]; [21]
  IC50 Pf: 10.3 ± 1.4 mg/L
P. falciparum (NF54 IEF) [5]; NF54 IEF, value in μM of pure compound, read-out: IC50 Pf (in brackets)
  IC50: 42.5 µM
P. falciparum (NF54 IEF) [5]
  SI Pf: 2.7
[7]
  IC50: 116 µM
  IC50 Cytotox: 28.2 ± 6.9 mg/L
